Laboratory results taken from ChEMBL document CHEMBL1140748, “Synthesis and biological evaluation of novel 2,4-diaminoquinazoline derivatives as SMN2 promoter activators for the potential treatment of spinal muscular atrophy” (J Med Chem, 2008).
Calls of active or inactive are those of the source. The calls are words filed in the database; no cut-off is given here.

Key:
NSC34 = assay: Activation of SMN2 promoter in mouse NSC34 cells assessed as induction of beta-lactamase activity at 30 uM
Dihydrofolate reductase = biological target: T1, Dihydrofolate reductase (Homo sapiens, UniProt P00374); assay: Inhibition of human recombinant DHFR
T1 sequence (P00374 whole entry): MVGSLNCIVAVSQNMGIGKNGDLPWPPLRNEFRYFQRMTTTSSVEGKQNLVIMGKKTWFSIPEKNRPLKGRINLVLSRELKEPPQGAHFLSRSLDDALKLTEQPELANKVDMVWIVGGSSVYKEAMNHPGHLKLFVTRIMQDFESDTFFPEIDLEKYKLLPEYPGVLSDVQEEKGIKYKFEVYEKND

[1] = Toxicity against rat hepatoma cells; assay type: cell-based; conditions: read-out: TC50 (the source's name)
[2] = Toxicity against rat hepatoma cells assessed as effect on alpha-glutathione S-transferase; assay type: cell-based; conditions: read-out: TC50 (the source's name)
[3] = Toxicity against rat hepatoma cells assessed as effect on mitochondrial function by MTT assay; assay type: cell-based; conditions: read-out: TC50 (the source's name)
[4] = Activation of SMN2 promoter in mouse NSC34 cells assessed as induction of beta-lactamase activity; assay type: functional, cell-based; conditions: Mus musculus, NSC-34
[5] = Toxicity against rat hepatoma cells assessed depletion of ATP levels; assay type: cell-based; conditions: read-out: TC50 (the source's name)
[6] = Activation of SMN2 promoter in mouse NSC34 cells assessed as induction of beta-lactamase activity relative to nonactivated cells; assay type: functional

SMILES | EC50 [4] | Activity [6] | also measured
CN(Cc1cnc2nc(N)nc(N)c2n1)c1ccc(C(=O)N[C@@H](CCC(=O)O)C(=O)O)cc1 |  |  | Activity (NSC34): inactive
CC(Oc1cccc2nc(N)nc(N)c12)c1cccc(Cl)c1 (racemic) | 21 nM |  | IC50 (Dihydrofolate reductase): 34 nM; CC50 [1]: 1000 nM; CC50 [2]: 55000 nM; CC50 [3]: 4000 nM; CC50 [5]: 1000 nM
Nc1nc(N)c2c(COc3cccc(Cl)c3)cccc2n1 | 42 nM | 2 | IC50 (Dihydrofolate reductase): 8400 nM
Nc1nc(N)c2c(OCC3CCN(C(=O)c4cccc(F)c4F)CC3)cccc2n1 | 67 nM | 2.5 | 
Cc1ccccc1COc1cccc2nc(N)nc(N)c12 | 280 nM | 1.6 | 
Cl.Nc1nc(N)c2c(OCC3CCN(Cc4ccc(F)cc4F)CC3)cccc2n1 | 18 nM | 1.9 | 
CCOc1cccc2nc(N)nc(N)c12 | 170 nM | 2.1 | 
Nc1nc(N)c2c(COc3ccccc3Cl)cccc2n1 | 1160 nM | 2.2 | 
Nc1nc(N)c2c(OCc3ccccc3Cl)cccc2n1 | 140 nM | 2 | 
Nc1nc(N)c2c(OCc3ccc(Cl)cc3)cccc2n1 | 180 nM | 1.84 | CC50 [1]: 32000 nM; CC50 [2]: 71000 nM; CC50 [3]: 36000 nM; CC50 [5]: 100 nM
Nc1nc(N)c2c(OCc3ccc(F)c(F)c3)cccc2n1 | 14 nM | 1.8 | 
